One assay has as its system G. duodenalis BRIS/91/HEPU/1279. The assay can be described thus: Primary Giardia screen at 10 µM (live-cell imaging, automated counting). Type of assay: cell-based, Giardia duodenalis. The following applies: 24 h. As to the method:
Each compound was assessed in singlicate, at a final concentration of 10 μM (0.4 μL of a 5 mM stock; diluted to a final volume of 200 μL in culture medium; 0.2% DMSO). […] Plates were incubated in sealed chambers filled with 3% O2, 5% CO2 in N2 and growth was assessed at 24 and 48 h using live cell imaging and automated counting as previously described. Growth inhibition was calculated by subtracting media only background counts and determining percentage growth relative to vehicle (0.2% DMSO) controls. The reliability of these assays was assessed by calculating Z’ factors for each plate as previously described.
Turning to `Cc1ccccc1C1CCCN1Cc1nc2c(cnn2C)c(=O)[nH]1` (stereo not drawn) [SN00772523], the “Average % Inhibition 24h” value worked out at 0.0%.

The assay is the same for the next values; noted with them: 24 h, first singlicate assay.
Take `Cc1ccccc1C1CCCN1Cc1nc2c(cnn2C)c(=O)[nH]1` (stereo not drawn) [SN00772523]: the “% Inhibition n=1 24h” value worked out at 0.0%.

The assay is the same for the next values; noted with them: 24 h, re-assessment.
`Cc1ccccc1C1CCCN1Cc1nc2c(cnn2C)c(=O)[nH]1` (stereo not drawn) [SN00772523]: the “% Inhibition n=2 24h” value is reported as 0.0%.

Still in this assay, the particulars now being: 48 h.
With `Cc1ccccc1C1CCCN1Cc1nc2c(cnn2C)c(=O)[nH]1` (stereo not drawn) [SN00772523], the “Average % Inhibition 48h” value was 28.2%.

The assay is the same for the next values; noted with them: 48 h, first singlicate assay.
Take `Cc1ccccc1C1CCCN1Cc1nc2c(cnn2C)c(=O)[nH]1` (stereo not drawn) [SN00772523]: the “% Inhibition n=1 48h” value amounted to 56.4%.
On to `Cc1ccc(S(=O)(=O)N2CCC[C@H]2C(=O)N2CCN(CC(=O)Nc3cccc(C)c3C)CC2)cc1` [SN00772546], for which the “% Inhibition n=1 48h” value is recorded as 7.6%.
On to `Cc1nc(C2CCN(CC(=O)NC(c3ccc(F)cc3)c3cccs3)CC2)n[nH]1` (stereo not drawn) [SN00772581], for which the “% Inhibition n=1 48h” value is listed as 24.6%.
Take `O=C(CCN1CCC(c2n[nH]c(C3CC3)n2)CC1)Nc1ccccc1` [SN00772586]: the “% Inhibition n=1 48h” value worked out at 28.6%.
Regarding `COC(=O)c1ccc(F)c(S(=O)(=O)NC2(c3nc(C)cs3)CCC2)c1` [SN00772601], the “% Inhibition n=1 48h” value is recorded as 27.1%.
For `Cc1csc(C2(NC(=O)Nc3ccc4c(c3)CCO4)CCC2)n1` [SN00772607], the “% Inhibition n=1 48h” value worked out at 20.7%.
Take `Cn1c(=O)c2cc(C(=O)NC3CCSC3=O)n(Cc3ccccc3)c2n(C)c1=O` (stereo not drawn) [SN00772623]: the “% Inhibition n=1 48h” value is 25.0%.
For the compound `CCCCOC(=O)c1ccc(NC(=O)c2cc3c(=O)n(C)c(=O)n(C)c3n2CCC)cc1` [SN00772629], the “% Inhibition n=1 48h” value is listed as 16.7%.
On to `O=c1onc(-c2cccnc2)n1Cc1noc(C2CC2)n1` [SN00772712], for which the “% Inhibition n=1 48h” value was 0.0%.
For `CCc1nccn1CC1CCCN1` (stereo not drawn) [SN00772783], the “% Inhibition n=1 48h” value is 0.0%.
Same read-out and setting: under `O=C(Nc1cccc(-c2noc(C3CCOCC3)n2)c1)C1CC1` [SN00772921] stands 0.0%; under `Cc1cccc(-c2noc(CN3CC(n4cc(C)cn4)C3)n2)c1` [SN00772979], 6.1%.
Same read-out and setting: the same measure for `COc1ccc2c(c1)CCCN(C(=O)c1nnc3ccccc3c1N)C2` [SN00773025]: 10.7%; for `O=C(Cc1noc(-c2ccoc2)n1)NC1CCCCC1` [SN00773041]: 3.1%; for `c1ccc(-c2nnc(CN3CCn4c(nnc4C4CC4)C3)o2)cc1` [SN00773167]: 0.0%.
On the same count and under the same terms, under `COc1ccc(NC(=O)N2CCN(CC3CCCCN3C)CC2)cn1` (stereo not drawn) [SN00773239] stands 0.0%; under `O=C(C1CC1)N1CCCCCC1C1CCN(c2nccc(C(F)(F)F)n2)CC1` (stereo not drawn) [SN00773266], 15.0%.
As for `O=C(NC(c1ccccc1)C1CC1)c1ccc2c(c1)S(=O)(=O)Nc1ncnn1-2` (stereo not drawn) [SN00773273], the “% Inhibition n=1 48h” value was 0.0%.
On the same count and under the same terms, under `NC(=O)c1cnc(N2CCC3(CC2)CC3c2nc(-c3cccc(Cl)c3)no2)c(Cl)c1` (stereo not drawn) [SN00773335] stands 0.0%.
Still for that read-out and setting: under `O=C(NCc1ccco1)N1CC2C3CCC(C3)C21` (stereo not drawn) [SN00773389] stands 2.6%; under `CCCn1nc2c(cc1=O)CN(Cc1nc(-c3ccco3)no1)CC2` [SN00773497], 0.0%.
Take `CC(C)n1nc2c(cc1=O)CN(Cc1nc(-c3ccoc3)no1)CC2` [SN00773517]: the “% Inhibition n=1 48h” value is 10.7%.
Consider `Cc1cc(C(=O)COC(=O)C2(O)CCCCC2)c(C)n1-c1c(C)n(C)n(-c2ccccc2)c1=O` [SN00773547], for which the “% Inhibition n=1 48h” value stood at 1.1%.
Still for that read-out and setting: under `Cc1ccccc1Nc1nc(N)nc(CN2C(=O)NC(C)(c3cccc4ccccc34)C2=O)n1` (stereo not drawn) [SN00773551] stands 21.3%; under `C=CCn1c(SCC(=O)N2CCCCC2)nc2scc(-c3ccco3)c2c1=O` [SN00773666], 5.6%.
Still for that read-out and setting: the same measure for `CCn1c(CN2Cc3ccccc3C[C@H]2C(N)=O)nc2cc(S(=O)(=O)N3CCCCC3)ccc21` [SN00773766]: 10.0%; for `CC(=O)N1CCN(Cc2nc3cc(Cl)ccc3n2C)CC1` [SN00773871]: 0.0%; for `O=C(Cn1c(=O)c2c(ncn2C2CCCC2)n(Cc2ccccc2)c1=O)Nc1cc(Cl)ccc1F` [SN00773912]: 0.0%.
Regarding `O=c1ccccn1Cc1nnc(-c2ccc(Br)o2)o1` [SN00773952], the “% Inhibition n=1 48h” value was determined as 8.9%.
As to `COc1ccc(-c2nnc(CN3C(=O)NC(C)(CCC(C)C)C3=O)o2)cc1` (stereo not drawn) [SN00773994], the “% Inhibition n=1 48h” value turned out to be 0.0%.
For `Cc1ccc(C2(C)NC(=O)N(Cc3ncc(-c4ccccc4)o3)C2=O)cc1` (stereo not drawn) [SN00774002], the “% Inhibition n=1 48h” value amounted to 0.0%.
Turning to `Cc1noc(CN2C(=O)NC(C)(c3ccccc3)C2=O)n1` (stereo not drawn) [SN00774045], the “% Inhibition n=1 48h” value amounted to 0.0%.
The same measure, in the same setting: the same measure for `Cn1cc(CN2C(=O)NC(C)(c3ccco3)C2=O)cn1` (stereo not drawn) [SN00774074]: 16.2%.
Regarding `Cc1nn(Cc2csc(-c3ccsc3)n2)c(C)c1S(=O)(=O)N1CCc2ccccc21` [SN00774089], the “% Inhibition n=1 48h” value was determined as 7.1%.
`O=C(Nc1cnn(Cc2cn3ccccc3n2)c1)Nc1ccc(F)cc1F` [SN00774154]: the “% Inhibition n=1 48h” value is listed as 7.2%.
Turning to `O=C1C(=O)N(C2CCCC2)C(=O)N1Cc1nc(-c2ccsc2)no1` [SN00774178], the “% Inhibition n=1 48h” value stood at 0.0%.
On the same count and under the same terms, under `CCOc1ccccc1N1C(=O)C(=O)N(Cc2nc(C)no2)C1=O` [SN00774186] stands 14.0%.
The same measure, in the same setting: the same measure for `Cc1nn(C)c2sc(C(=O)N3CCN(S(=O)(=O)c4ccc(Br)cc4)CC3)cc12` [SN00774390]: 10.6%; for `Cc1nn(Cc2ccccc2)c2sc(C(=O)N3CCN(C(=O)N4CCCCC4)CC3)cc12` [SN00774391]: 14.0%.
On the same count and under the same terms, the same measure for `CC(=O)NC1CCCN(C(=O)c2cc3c(C)nn(Cc4ccc(F)cc4)c3s2)C1` (stereo not drawn) [SN00774438]: 0.0%; for `CC(C)CN1CC(C(=O)N2CCC(Nc3cccnn3)CC2)CC1=O` (stereo not drawn) [SN00774466]: 0.0%.
Turning to `CCOC(=O)C1CCN(C(=O)c2ccc3c(c2)C(=O)N(c2ccccc2C)C3=O)CC1` [SN00774484], the “% Inhibition n=1 48h” value is reported as 0.0%.
On the same count and under the same terms, under `CC1CCN(C(=O)c2n[nH]c(=O)c3ccccc23)CC1` [SN00774511] stands 0.0%.
On the same count and under the same terms, the same measure for `CC(C)Cn1nc(C(=O)N2CCCCC2c2nc3ccccc3s2)c2ccccc2c1=O` (stereo not drawn) [SN00774515]: 2.8%; for `Cc1ccc(-c2nc(-c3cccnc3)sc2CC(=O)Nc2ccc3nc(C)sc3c2)cc1` [SN00774529]: 0.0%.
With `CC(C)(C)OC(=O)N1CCCC(N(Cc2ccccc2)C(=O)Cc2csc(-c3cccnc3)n2)C1` (stereo not drawn) [SN00774555], the “% Inhibition n=1 48h” value was determined as 0.0%.
On the same count and under the same terms, the same measure for `O=C(c1ccc2[nH]cnc2c1)N1CCN(Cc2cccc(Cl)c2)CC1` [SN00774568]: 0.0%.
For the compound `C/C(=C/C(=O)N1CCN(C(=O)c2ccc3[nH]cnc3c2)CC1)C1CC1` [SN00774586], the “% Inhibition n=1 48h” value is 5.9%.
`COc1ccc(C2CCCN2C(=O)c2cnn(-c3ccc(C(F)(F)F)cn3)c2C)cc1` (stereo not drawn) [SN00774591]: the “% Inhibition n=1 48h” value is given as 35.2%.
With `Cc1c(C(=O)N2CCCC2Cn2cccn2)cnn1-c1ccccc1` (stereo not drawn) [SN00774604], the “% Inhibition n=1 48h” value was determined as 16.2%.
Consider `O=C(NCCN1CCCCCC1=O)C1CCCN1C(=O)C1CCCC1` (stereo not drawn) [SN00774624], for which the “% Inhibition n=1 48h” value is 0.0%.
The same measure, in the same setting: under `O=C(c1cnccn1)N1CCN(C(=O)C2CCCC2)CC1` [SN00774707] stands 8.7%.

Still in this assay, the particulars now being: 48 h, re-assessment.
Take `Cc1ccccc1C1CCCN1Cc1nc2c(cnn2C)c(=O)[nH]1` (stereo not drawn) [SN00772523]: the “% Inhibition n=2 48h” value worked out at 0.0%.
